From US9056874B2, “Complement pathway modulators and uses thereof” (NOVARTIS AG, priority 2012, dated 2015)

Target: factor B (Homo sapiens, UniProt P00751)
Experiment: assay of Biological Example 2.7
Format: binding
Parameters: made in house; host or cells: drosophila cells
Details: assay of Biological Example 2.7 (Table 2)

Sequence of factor B (P00751 26-764): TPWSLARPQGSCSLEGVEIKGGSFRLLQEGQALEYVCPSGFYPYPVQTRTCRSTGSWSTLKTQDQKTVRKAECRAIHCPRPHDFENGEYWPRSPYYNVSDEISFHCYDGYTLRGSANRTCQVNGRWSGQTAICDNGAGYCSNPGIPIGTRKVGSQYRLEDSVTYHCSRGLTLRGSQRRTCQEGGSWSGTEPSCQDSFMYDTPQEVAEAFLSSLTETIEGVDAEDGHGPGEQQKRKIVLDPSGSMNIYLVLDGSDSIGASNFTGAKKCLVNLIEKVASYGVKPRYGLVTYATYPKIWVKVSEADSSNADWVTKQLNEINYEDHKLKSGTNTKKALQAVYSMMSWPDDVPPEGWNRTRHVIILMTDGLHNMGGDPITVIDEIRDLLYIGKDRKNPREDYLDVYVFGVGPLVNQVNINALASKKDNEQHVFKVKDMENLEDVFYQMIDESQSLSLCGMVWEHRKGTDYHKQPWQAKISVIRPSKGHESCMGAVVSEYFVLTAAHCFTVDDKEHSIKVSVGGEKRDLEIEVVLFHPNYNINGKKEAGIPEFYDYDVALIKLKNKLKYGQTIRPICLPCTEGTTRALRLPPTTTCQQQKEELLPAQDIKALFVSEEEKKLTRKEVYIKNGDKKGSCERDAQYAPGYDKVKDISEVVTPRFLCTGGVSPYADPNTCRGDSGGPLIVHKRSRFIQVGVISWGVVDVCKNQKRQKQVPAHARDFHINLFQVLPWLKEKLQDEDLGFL

| SMILES | IC50 [nM] |
| --- | --- |
| COC(=O)CC(C)(c1nc2cc(C#N)ccc2[nH]1)c1c(OC)cc(C)c2c1CCN2 (racemic) [Example 156-K, (±)-Methyl 3-(5-cyano-1H-benzo[d]imidazol-2-yl)-3-(5-methoxy-7-methylindolin-4-yl)butanoate] | 130 |
| COc1cc(C)c2[nH]ccc2c1C(CCCC(=O)O)c1nc2cc(C#N)ccc2[nH]1 (racemic) [Example 157, (±)-5-(5-Cyano-1H-benzo[d]imidazol-2-yl)-5-(5-methoxy-7-methyl-1H-indol-4-yl)pentanoic acid] | 39 |
| COc1cc(C)c2[nH]ccc2c1C(c1nc2cc(C#N)ccc2o1)C(C)(C)C(=O)O (racemic) [Example 158, (±)-3-(5-Cyanobenzo[d]oxazol-2-yl)-3-(5-methoxy-7-methyl-1H-indol-4-yl)-2,2-dimethylpropanoic acid] | 21000 |
| COc1cc(C)c2[nH]ccc2c1C(N)(c1nc2cc(C#N)ccc2o1)C(F)(F)F (single isomer, unassigned) [137-B b) (tr = 2.7 min), (+) or (−)-2-(1-amino-2,2,2-trifluoro-1-(5-methoxy-7-methyl-1H-indol-4-yl)ethyl)benzo[d]oxazole-5-carbonitrile] | 20 |
| COc1cc(C)c2[nH]ccc2c1C(N)(c1nc2cc(C#N)ccc2o1)C(F)(F)F (single isomer, unassigned) [137-B b) (tr = 4.6 min), (−) or (+)-2-(1-amino-2,2,2-trifluoro-1-(5-methoxy-7-methyl-1H-indol-4-yl)ethyl)benzo[d]oxazole-5-carbonitrile] | 3210 |
| CCc1cc(C)c2[nH]ccc2c1C(C)(N)c1nc2cc(C#N)ccc2o1 (single isomer, unassigned) [137-F b) (tr = 3.3 min), (+) or (−)-2-(1-amino-1-(5-ethyl-7-methyl-1H-indol-4-yl)ethyl)benzo[d]oxazole-5-carbonitrile] | 170 |
| CCc1cc(C)c2[nH]ccc2c1C(C)(N)c1nc2cc(C#N)ccc2o1 (single isomer, unassigned) [137-F b) (tr = 4.9 min), (−) or (+)-2-(1-amino-1-(5-ethyl-7-methyl-1H-indol-4-yl)ethyl)benzo[d]oxazole-5-carbonitrile] | 10 |
| CNC(C)(c1nc2cc(C#N)ccc2o1)c1c(OC)cc(C)c2[nH]ccc12 (single isomer, unassigned) [137-M b) (tr = 2.9 min), (+) or (−)-2-(1-(5-methoxy-7-methyl-1H-indol-4-yl)-1-(methylamino)ethyl)benzo[d]oxazole-5-carbonitrile] | 370 |
| CCOC(=O)COC(c1nc2cc(C#N)ccc2[nH]1)(c1c(OC)cc(C)c2[nH]ccc12)C(F)(F)F (single isomer, unassigned) [Example 35-D, (+) or (−)-Ethyl 2-(1-(5-cyano-1H-benzo[d]imidazol-2-yl)-2,2,2-trifluoro-1-(5-methoxy-7-methyl-1H-indol-4-yl)ethoxy)acetate] | 24 |
| Cc1cc(O)c(C(N)(c2nc3cc(C#N)ccc3[nH]2)C(F)(F)F)c2cc[nH]c12 (single isomer, unassigned) [Example 141, (+) or (−)-2-(1-amino-2,2,2-trifluoro-1-(5-hydroxy-7-methyl-1H-indol-4-yl)ethyl)-1H-benzo[d]imidazole-5-carbonitrile] | 150 |
| Cc1cc(Br)c(C(C)(N)c2nc3cc(C#N)ccc3[nH]2)c2cc[nH]c12 (single isomer, unassigned; (+)) [137-A b) (+), (+)-2-(1-amino-1-(5-bromo-7-methyl-1H-indol-4-yl)ethyl)-1H-benzo[d]imidazole-5-carbonitrile] | 120 |
| [2H]C([2H])([2H])OC(C)(c1nc2cc(C#N)ccc2[nH]1)c1c(OC)cc(C)c2[nH]ccc12 (single isomer, unassigned; (+)) [137-I b) (+), (+)-2-(1-(^2H3)methoxy-1-(5-methoxy-7-methyl-1H-indol-4-yl)ethyl)-1H-benzo[d]imidazole-5-carbonitrile] | 110 |
| [2H]C([2H])([2H])OC(c1nc2cc(C#N)ccc2[nH]1)(c1c(OC)cc(C)c2[nH]ccc12)C(F)(F)F (single isomer, unassigned; (+)) [137-J b) (+), (+)-2-(2,2,2-trifluoro-1-(^2H3)-methoxy-1-(5-methoxy-7-methyl-1H-indol-4-yl)ethyl)-1H-benzo[d]imidazole-5-carbonitrile] | 1300 |
| COc1cc(C)c2[nH]ccc2c1C(C)(OC)c1nc2cc(C#N)ccc2o1 (single isomer, unassigned; (+)) [137-K b) (+), (+)-2-(1-methoxy-1-(5-methoxy-7-methyl-1H-indol-4-yl)ethyl)benzo[d]oxazole-5-carbonitrile] | 820 |
| COC(C)(c1nc2cc(C#N)ccc2o1)c1c(C2CC2)cc(C)c2[nH]ccc12 (single isomer, unassigned; (+)) [137-L b) (+), (+)-2-(1-(5-cyclopropyl-7-methyl-1H-indol-4-yl)-1-methoxyethyl)benzo[d]oxazole-5-carbonitrile] | 720 |
| COc1cc(C)c2[nH]ccc2c1C(C)(O)c1nc2cc(C#N)ccc2o1 (single isomer, unassigned; (+)) [137-N b) (+), (+)-2-(1-hydroxy-1-(5-methoxy-7-methyl-1H-indol-4-yl)ethyl)benzo[d]oxazole-5-carbonitrile] | 40 |

| SMILES | IC50 [nM] |
| --- | --- |
| COc1cc(C)c2[nH]cc3c2c1C(c1nc2cc(C#N)ccc2[nH]1)(C(F)(F)F)NC3 (single isomer, unassigned; (+)) [Example 36-F, (+)-2-(6-methoxy-8-methyl-5-(trifluoromethyl)-1,3,4,5-tetrahydropyrrolo[4,3,2-de]isoquinolin-5-yl)-1H-benzo[d]imidazole-5-carbonitrile] | 12 |
| COc1cc(C)c2[nH]ccc2c1C(CC(=O)O)c1nc2cc(C#N)ccc2o1 (single isomer, unassigned; (+)) [Example 148-D, (+)-3-(5-cyanobenzo[d]oxazol-2-yl)-3-(5-methoxy-7-methyl-1H-indol-4-yl)propanoic acid] | 340 |
| COc1cc(C)c2[nH]ccc2c1C(CCC(=O)O)c1nc2cc(C#N)ccc2o1 (single isomer, unassigned; (+)) [Example 149-C, (+)-4-(5-cyanobenzo[d]oxazol-2-yl)-4-(5-methoxy-7-methyl-1H-indol-4-yl)butanoic acid] | 160 |
| Cc1cc(Br)c(C(C)(N)c2nc3cc(C#N)ccc3[nH]2)c2cc[nH]c12 (single isomer, unassigned; (-)) [137-A b) (−), (−)-2-(1-amino-1-(5-bromo-7-methyl-1H-indol-4-yl)ethyl)-1H-benzo[d]imidazole-5-carbonitrile] | 20 |
| [2H]C([2H])([2H])OC(C)(c1nc2cc(C#N)ccc2[nH]1)c1c(OC)cc(C)c2[nH]ccc12 (single isomer, unassigned; (-)) [137-I b) (−), (−)-2-(1-(^2H3)methoxy-1-(5-methoxy-7-methyl-1H-indol-4-yl)ethyl)-1H-benzo[d]imidazole-5-carbonitrile] | 10 |
| [2H]C([2H])([2H])OC(c1nc2cc(C#N)ccc2[nH]1)(c1c(OC)cc(C)c2[nH]ccc12)C(F)(F)F (single isomer, unassigned; (-)) [137-J b) (−), (−)-2-(2,2,2-trifluoro-1-(^2H3)-methoxy-1-(5-methoxy-7-methyl-1H-indol-4-yl)ethyl)-1H-benzo[d]imidazole-5-carbonitrile] | 10 |
| COc1cc(C)c2[nH]ccc2c1C(C)(OC)c1nc2cc(C#N)ccc2o1 (single isomer, unassigned; (-)) [137-K b) (−), (−)-2-(1-methoxy-1-(5-methoxy-7-methyl-1H-indol-4-yl)ethyl)benzo[d]oxazole-5-carbonitrile] | 200 |
| COC(C)(c1nc2cc(C#N)ccc2o1)c1c(C2CC2)cc(C)c2[nH]ccc12 (single isomer, unassigned; (-)) [137-L b) (−), (−)-2-(1-(5-cyclopropyl-7-methyl-1H-indol-4-yl)-1-methoxyethyl)benzo[d]oxazole-5-carbonitrile] | 270 |
| COc1cc(C)c2[nH]ccc2c1C(C)(O)c1nc2cc(C#N)ccc2o1 (single isomer, unassigned; (-)) [137-N b) (−), (−)-2-(1-hydroxy-1-(5-methoxy-7-methyl-1H-indol-4-yl)ethyl)benzo[d]oxazole-5-carbonitrile] | 6 |
| COc1cc(C)c2[nH]ccc2c1C(CC(=O)O)c1nc2cc(C#N)ccc2o1 (single isomer, unassigned; (-)) [Example 148-E, (−)-3-(5-cyanobenzo[d]oxazol-2-yl)-3-(5-methoxy-7-methyl-1H-indol-4-yl)propanoic acid] | 420 |
| COc1cc(C)c2[nH]ccc2c1C(CCC(=O)O)c1nc2cc(C#N)ccc2o1 (single isomer, unassigned; (-)) [Example 149-D, (−)-4-(5-cyanobenzo[d]oxazol-2-yl)-4-(5-methoxy-7-methyl-1H-indol-4-yl)butanoic acid] | 120 |
| COc1cc(C)c2[nH]ccc2c1C(c1nc2cc(C#N)ccc2[nH]1)C(C)C(=O)O (single isomer, unassigned; diastereomer a) [Example 147-D, (±)-3-(5-Cyano-1H-benzo[d]imidazol-2-yl)-3-(5-methoxy-7-methyl-1H-indol-4-yl)-2-methylpropanoic acid (Diastereomer A)] | 790 |
| COc1cc(C)c2[nH]ccc2c1C(c1nc2cc(C#N)ccc2[nH]1)C(C)C(=O)O (single isomer, unassigned; diastereomer b) [Example 147-E, (±)-3-(5-Cyano-1H-benzo[d]imidazol-2-yl)-3-(5-methoxy-7-methyl-1H-indol-4-yl)-2-methylpropanoic acid (Diastereomer B)] | 160 |
| COc1cc(C)c2[nH]ccc2c1C(c1nc2cc(C#N)ccc2[nH]1)C(C)CO (single isomer, unassigned; diastereomer b) [Example 147-F, (±)-2-(3-hydroxy-1-(5-methoxy-7-methyl-1H-indol-4-yl)-2-methylpropyl)-1H-benzo[d]imidazole-5-carbonitrile (Diastereomer B)] | 100 |
| COc1cc(C)c2[nH]ccc2c1C(O)c1nc2cc(C#N)ccc2s1 (centres unmarked) [Example 137-C] | 62 |
| COc1cc(C)c2[nH]ccc2c1C(C)(N)c1nc2cc(C#N)ccc2s1 (centres unmarked) [Example 137-D] | 170 |
